# Assay results published in PubChem BioAssay AID318 (DTP/NCI, 2004).
# Where “and” joins values, the source holds several entries; their conditions need not be identical. Identical values can stand only once. Toxic doses and inconclusive results are not listed. Starred links: 1 amine or outer side, 2 acyl side, 3 side chain; linkers in the order of their positions; H or OH if unused. Positions of bridges follow the written chain, without caps; N, C: chain ends. Non-standard residues stand in square brackets, D forms with d. Residues, ends and D or L forms follow the SMILES beside them. Chains are numbered I, II in the order given. Actinocin(9to1) = Cc1c2oc3c(C)ccc(C(=O)[*:1])c3nc-2c(C(=O)[*:2])c(N)c1=O; aThr = C[C@H](O)[C@H](N)C(=O)O; NMeV = CN[C@H](C(=O)O)C(C)C; Sar = CNCC(=O)O
# System: BDF1 mice, P815 leukemia ip, survival T/C
# Test: NCI In Vivo Anticancer Drug Screen. Data for tumor model P815 Mast Cell Leukemia (Ascitic) (intraperitoneal) in B6D2F1 (BDF1) mice
# Conditions: higher = longer survival
# Protocol: The antitumor activity of compounds was measured in mice bearing transplantable tumors. Survival or tumor size were measured and the results are expressed as the measurement made in the treated group (T) divided by the measurement made in the vehicle treated control group (C). The tumor model used in this assay is P815 Mast Cell Leukemia (Ascitic) (intraperitoneal) in B6D2F1 (BDF1) mice
# [1] = endpoint: survival time, mean or median, dose: 27.0 mg/kg/injection, schedule: Q01DX010 (ip), vehicle: saline
# [2] = endpoint: survival time, mean or median, dose: 25.0 mg/kg/injection, schedule: Q01DX010 (ip), vehicle: saline
# [3] = endpoint: survival time, mean or median, dose: 50.0 mg/kg/injection, schedule: Q01DX010 (ip), vehicle: saline
smiles,measurement,setting,value
C=CCSc1nc(N)nc2nc[nH]c12,T/C,"endpoint: survival time, mean or median, dose: 15.0 mg/kg/injection, schedule: Q01DX015 (ip), vehicle: other",113 % of control
same,T/C,"endpoint: survival time, mean or median, dose: 16.0 mg/kg/injection, schedule: Q01DX015 (ip), vehicle: other",109 % of control
same,T/C,"endpoint: survival time, mean or median, dose: 31.0 mg/kg/injection, schedule: Q01DX015 (ip), vehicle: other",96 % of control and 107 % of control
same,T/C,"endpoint: survival time, mean or median, dose: 62.0 mg/kg/injection, schedule: Q01DX015 (ip), vehicle: other",106 % of control and 112 % of control
same,T/C,"endpoint: survival time, mean or median, dose: 125.0 mg/kg/injection, schedule: Q01DX015 (ip), vehicle: other",89 % of control and 91 % of control
"Cc1c2oc3c(C)ccc(C(=O)N[C@@H]4C(=O)N[C@H](C(C)C)C(=O)N5CCC[C@H]5C(=O)N(C)CC(=O)N(C)[C@@H](C(C)C)C(=O)O[C@H]4C)c3nc-2c(C(=O)N[C@@H]2C(=O)N[C@H](C(C)C)C(=O)N3CCC[C@H]3C(=O)N(C)CC(=O)N(C)[C@@H](C(C)C)C(=O)O[C@H]2C)c(N)c1=O (I: [aThr][dV]P[Sar][NMeV] / II: [aThr][dV]P[Sar][NMeV]; ester I:1-I:C, II:1-II:C; linker I:N-II:N via Actinocin(9to1))",T/C,"endpoint: median survival time, dose: 180.0 micrograms/kg/injection, schedule: Q04DX003 (ip), vehicle: saline + alcohol",122 % of control
same,T/C,"endpoint: median survival time, dose: 300.0 micrograms/kg/injection, schedule: Q04DX003 (ip), vehicle: saline + alcohol",105 % of control
same,T/C,"endpoint: median survival time, dose: 500.0 micrograms/kg/injection, schedule: Q04DX003 (ip), vehicle: saline + alcohol",90 % of control
CN(C)c1ccc(Nc2c3ccccc3nc3ccccc23)cc1,T/C,"endpoint: survival time, mean or median, dose: 36.0 mg/kg/injection, schedule: Q01DX010 (ip), vehicle: saline",105 % of control and 122 % of control
same,T/C,"endpoint: survival time, mean or median, dose: 54.0 mg/kg/injection, schedule: Q01DX010 (ip), vehicle: saline",120 % of control and 122 % of control
same,T/C,"endpoint: survival time, mean or median, dose: 80.0 mg/kg/injection, schedule: Q01DX010 (ip), vehicle: saline",166 % of control
same,T/C,"endpoint: survival time, mean or median, dose: 120.0 mg/kg/injection, schedule: Q01DX010 (ip), vehicle: saline",111 % of control
Nc1nc(N)c2nc(CNc3ccc(C(=O)NC(CCC(=O)O)C(=O)O)cc3)cnc2n1 (stereo not given),T/C,"endpoint: survival time, mean or median, dose: 0.03 mg/kg/injection, schedule: Q01DX010 (ip), vehicle: other",102 % of control and 105 % of control
same,T/C,"endpoint: survival time, mean or median, dose: 0.05 mg/kg/injection, schedule: Q01DX010 (ip), vehicle: other",100 % of control and 102 % of control
same,T/C,"endpoint: survival time, mean or median, dose: 0.1 mg/kg/injection, schedule: Q01DX010 (ip), vehicle: other",100 % of control and 108 % of control
same,T/C,"endpoint: survival time, mean or median, dose: 0.2 mg/kg/injection, schedule: Q01DX010 (ip), vehicle: other",105 % of control and 108 % of control
O=C(Nc1cccc(NC(=O)Nc2cccc(C3=NCCN3)c2)c1)Nc1cccc(C2=NCCN2)c1,T/C,[1],121 % of control
same,T/C,"endpoint: survival time, mean or median, dose: 40.0 mg/kg/injection, schedule: Q01DX010 (ip), vehicle: saline",117 % of control
same,T/C,"endpoint: survival time, mean or median, dose: 66.0 mg/kg/injection, schedule: Q01DX010 (ip), vehicle: saline",113 % of control
same,T/C,"endpoint: survival time, mean or median, dose: 90.0 mg/kg/injection, schedule: Q01DX010 (ip), vehicle: saline",86 % of control
N[C@@H](Cc1ccc(N(CCCl)CCCl)cc1)C(=O)O,T/C,"endpoint: survival time, mean or median, dose: 1.0 mg/kg/injection, schedule: Q01DX015 (ip), vehicle: carboxymethylcellulose (CMC)",231 % of control
same,T/C,"endpoint: survival time, mean or median, dose: 2.0 mg/kg/injection, schedule: Q01DX015 (ip), vehicle: carboxymethylcellulose (CMC)",257 % of control
same,T/C,"endpoint: survival time, mean or median, dose: 4.0 mg/kg/injection, schedule: Q01DX015 (ip), vehicle: carboxymethylcellulose (CMC)",182 % of control and 195 % of control
same,T/C,"endpoint: survival time, mean or median, dose: 8.0 mg/kg/injection, schedule: Q01DX015 (ip), vehicle: carboxymethylcellulose (CMC)",103 % of control
CCN(CC)CCNc1ccc(C)c2sc3ccccc3c(=O)c12,T/C,[2],107 % of control and 113 % of control
same,T/C,[3],118 % of control and 123 % of control
CS(=O)(=O)OCCCl,T/C,"endpoint: survival time, mean or median, dose: 18.8 mg/kg/injection, schedule: Q01DX010 (ip), vehicle: saline",100 % of control and 105 % of control
same,T/C,"endpoint: survival time, mean or median, dose: 37.5 mg/kg/injection, schedule: Q01DX010 (ip), vehicle: saline",100 % of control
same,T/C,"endpoint: survival time, mean or median, dose: 75.0 mg/kg/injection, schedule: Q01DX010 (ip), vehicle: saline",100 % of control and 111 % of control
O=C(Nc1ccc(C2=NCCN2)cc1)c1ccc(NC(=O)c2ccc(C3=NCCN3)cc2)cc1,T/C,"endpoint: survival time, mean or median, dose: 18.0 mg/kg/injection, schedule: Q01DX010 (ip), vehicle: saline",112 % of control
same,T/C,[1],116 % of control
CS(=O)(=O)OCCC(=O)N1CCN(C(=O)CCOS(C)(=O)=O)CC1,T/C,"endpoint: survival time, mean or median, dose: 12.5 mg/kg/injection, schedule: Q01DX010 (ip), vehicle: saline",105 % of control
same,T/C,[2],222 % of control
same,T/C,[3],211 % of control and 285 % of control
same,T/C,"endpoint: survival time, mean or median, dose: 100.0 mg/kg/injection, schedule: Q01DX010 (ip), vehicle: saline",183 % of control and 160 % of control
